# From ChEMBL document CHEMBL1126308, “Alfred Burger Award address. A half century in medicinal chemistry with major emphasis on pain-relieving drugs and their antagonists” (1992)
# Calls of active or inactive are those of the source. No cut-off for these calls is given here.
# What was measured:
# Monkey [1] = experiment: Antagonistic potency of the compound; not active; type: functional, organism-based; conditions: Cercopithecidae
# Monkey [2] = experiment: Analgesic activity in monkeys.; type: functional, Cercopithecidae
# Monkey [3] = experiment: Physical dependence capacity (PDC) of the compound; intermed physical dependence capacity; type: functional, organism-based; conditions: Cercopithecidae
# Monkey [4] = experiment: Physical dependence capacity (PDC) of the compound; low physical dependence capacity; type: functional, organism-based; conditions: Cercopithecidae
# Monkey [5] = experiment: Physical dependence capacity (PDC) of the compound; no physical dependence capacity; type: functional, organism-based; conditions: Cercopithecidae
# Mus musculus [6] = species on record: Mus musculus; experiment: Compound was evaluated for the hotplate analgesic activity in mouse; type: functional; design: unit not given here
# Mus musculus [7] = species on record: Mus musculus; experiment: (§1) Compound was evaluated for the inhibition of [3H]naloxone binding to mouse brain homogenate at 1 nM in the absence of sodium; type: functional
# Mus musculus [8] = species on record: Mus musculus; experiment: Compound was evaluated for the inhibition of [3H]naloxone binding to mouse brain homogenate at 1 nM in the presence of 100 mM sodium; ED50 = […] nM; type: functional
# Mus musculus [9] = species on record: Mus musculus; experiment: Ratio between the ED50 values in presence and absence of sodium; value ranges from […]; type: functional
# Mus musculus [10] = species on record: Mus musculus; experiment: Compound was evaluated for the hotplate analgesic activity; type: functional
# Mus musculus [11] = species on record: Mus musculus; experiment: Ratio between the ED50 values in presence and absence of sodium; value ranges from 2-2.5; type: functional
# [12] = molecular target: Mu-type opioid receptor (Mus musculus) (UniProt P42866); experiment: Compound was evaluated for the inhibition of [3H]naloxone binding to opioid receptor mu mouse brain homogenate at 1 nM in the presence of 100 mM sodium; ED50 = 40-50 nM; type: tissue-based
# Chain of Mu-type opioid receptor (Mus musculus) (P42866 whole entry): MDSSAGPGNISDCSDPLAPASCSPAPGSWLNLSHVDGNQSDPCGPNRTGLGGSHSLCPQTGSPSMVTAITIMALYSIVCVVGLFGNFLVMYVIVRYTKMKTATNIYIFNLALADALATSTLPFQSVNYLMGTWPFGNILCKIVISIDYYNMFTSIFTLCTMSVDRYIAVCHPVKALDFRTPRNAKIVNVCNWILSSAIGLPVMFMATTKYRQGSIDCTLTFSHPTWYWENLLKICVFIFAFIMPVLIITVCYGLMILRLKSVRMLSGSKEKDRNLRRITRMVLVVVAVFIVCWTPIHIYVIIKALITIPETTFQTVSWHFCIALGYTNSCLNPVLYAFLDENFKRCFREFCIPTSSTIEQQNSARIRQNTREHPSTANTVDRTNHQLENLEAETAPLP
# [13] = molecular target: Mu-type opioid receptor (Mus musculus) (UniProt P42866); experiment: Compound was evaluated for the inhibition of [3H]naloxone binding to opioid receptor mu of mouse brain homogenate at 1 nM in the absence of sodium; type: tissue-based
# [14] = molecular target: Mu-type opioid receptor (Mus musculus) (UniProt P42866); experiment: Compound was evaluated for the inhibition of [3H]naloxone binding to mouse brain homogenate at 1 nM in the absence of sodium; ED50 = 7-10 nM; type: tissue-based
# [15] = molecular target: Mu-type opioid receptor (Mus musculus) (UniProt P42866); experiment: (§2) Compound was evaluated for the inhibition of [3H]naloxone binding to mouse brain homogenate at 1 nM in the presence of 100 mM sodium; type: tissue-based
# [16] = molecular target: Mu-type opioid receptor (Mus musculus) (UniProt P42866); experiment: Ratio between the ED50 values in presence and absence of sodium; value ranges from 7-10
# Mus musculus [17] = species on record: Mus musculus; experiment: as §2; type: functional
# Mus musculus [18] = species on record: Mus musculus; experiment: Ratio between the ED50 values in presence and absence of sodium; type: functional
# Mus musculus [19] = species on record: Mus musculus; experiment: Compound was evaluated for the inhibition of [3H]naloxone binding to mouse brain homogenate at 1 nM in the presence of 100 mM sodium; ED50 = 1500-2000 nM; type: functional
# [20] = molecular target: Mu-type opioid receptor (Rattus norvegicus) (UniProt P33535); experiment: Ratio between the ED50 values in presence and absence of sodium; value ranges from 3.8-5; type: functional; conditions: Mus musculus
# Chain of Mu-type opioid receptor (Rattus norvegicus) (P33535 whole entry): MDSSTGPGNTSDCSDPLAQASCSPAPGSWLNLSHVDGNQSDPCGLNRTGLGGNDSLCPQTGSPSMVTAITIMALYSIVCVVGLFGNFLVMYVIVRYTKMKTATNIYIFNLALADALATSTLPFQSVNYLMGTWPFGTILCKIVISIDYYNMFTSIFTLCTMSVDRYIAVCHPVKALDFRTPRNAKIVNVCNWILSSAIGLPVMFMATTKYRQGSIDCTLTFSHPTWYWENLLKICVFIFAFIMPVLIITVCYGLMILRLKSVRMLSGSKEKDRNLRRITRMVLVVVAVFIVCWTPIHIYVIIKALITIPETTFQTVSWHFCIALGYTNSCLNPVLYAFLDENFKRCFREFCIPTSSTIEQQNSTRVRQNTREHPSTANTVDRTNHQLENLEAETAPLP
# Monkey [21] = experiment: aAntagonistic potency of the compound; not active; type: functional, organism-based; conditions: Cercopithecidae
# Monkey [22] = experiment: Physical dependence capacity (PDC) of the compound; high physical dependence capacity; type: functional, organism-based; conditions: Cercopithecidae
# Mus musculus [23] = species on record: Mus musculus; experiment: Compound was evaluated for the hotplate analgesic activity; IA=inactive; type: functional, organism-based
# Mus musculus [24] = species on record: Mus musculus; experiment: Ratio between the ED50 values in presence and absence of sodium; value ranges from 1.2-1.5; type: functional
# [25] = molecular target: Mu-type opioid receptor (Mus musculus) (UniProt P42866); experiment: as §1; type: tissue-based
# [26] = molecular target: Mu-type opioid receptor (Mus musculus) (UniProt P42866); experiment: Compound was evaluated for the inhibition of [3H]naloxone binding to opioid receptor mu of mouse brain homogenate at 1 nM in the presence of 100 mM sodium; ED50=600-700 nM; type: tissue-based
# [27] = molecular target: Mu-type opioid receptor (Mus musculus) (UniProt P42866); experiment: Compound was evaluated for the inhibition of [3H]-naloxone binding to mouse brain homogenate at 1 nM in the presence of 100 mM sodium; type: tissue-based
# Mus musculus [28] = species on record: Mus musculus; experiment: Compound was evaluated for the inhibition of [3H]naloxone binding to mouse brain homogenate at 1 nM in the presence of 100 mM sodium; ED50 = 800-1000 nM; type: functional
# Mus musculus [29] = species on record: Mus musculus; experiment: Ratio between the ED50 values in presence and absence of sodium; value ranges from 4-5; type: functional
# Monkey [30] = experiment: Physical dependence capacity (PDC) of the compound; very low physical dependence capacity; type: functional, organism-based; conditions: Cercopithecidae
# [31] = Cercopithecidae, in Primates, read-out: ED50
smiles,measurement,setting,value
COc1ccc2c3c1O[C@H]1[C@@H](O)C=C[C@H]4[C@@H](C2)N(C)CC[C@@]341 [CODEINE],Antagonist potency,Monkey [1],inactive
same,ED50,Monkey [2]; [31],7.5 mg/kg
same,PDC,Monkey [3],Partially active
CN1CC[C@]2(C)CC1Cc1ccc(O)cc12 (stereo in doubt; form 2),ED50,Monkey [2],3.2 mg/kg
CC[C@]12CCN(C)C(Cc3ccc(O)cc31)C2,PDC,Monkey [4],low physical dependence capacity
same,PDC,Monkey [5],low physical dependence capacity
same,Antagonist potency,Monkey [1],inactive
C[C@H]1C2Cc3ccc(O)cc3[C@]1(C)CCN2C,PDC,Monkey [5],no physical dependence capacity
same,Antagonist potency,Monkey [1],inactive
same,ED50,Monkey [2]; Cercopithecidae,inactive
same,ED50,Monkey [2]; [31],0.6 mg/kg
CCCCN1CCC(C(=O)CC)(c2cccc(O)c2)CC1,ED50,Mus musculus [6],4.6
same,ED50,Mus musculus [7],0.05 µM
same,ED50,Mus musculus [8],0.6 µM
same,Ratio,Mus musculus [9],12
CN1CC[C@]2(C)CC1Cc1ccc(O)cc12 (stereo in doubt; form 3) [listing 1 of 2 here],PDC,Monkey [5],no physical dependence capacity
CCCCCCCN1CCC(C(=O)CC)(c2cccc(O)c2)CC1,ED50,Mus musculus [10],9 µM
same,Ratio,Mus musculus [11],2
same,ED50,[12],0.04 µM
same,ED50,[13],0.02 µM
CCC(=O)C1(c2cccc(O)c2)CCN(C)CC1 [KETOBEMIDONE],ED50,Mus musculus [6],2.1
same,ED50,[14],0.007 µM
same,ED50,[15],0.07 µM
same,Ratio,[16],7
CC1C2Cc3ccc(O)cc3[C@]1(C)CCN2C (stereo in doubt; form 1),ED50,Monkey [2],0.1 mg/kg
CCCCCN1CCC(C(=O)CC)(c2cccc(O)c2)CC1,ED50,Mus musculus [6],0.78
same,ED50,Mus musculus [7],0.008 µM
same,ED50,Mus musculus [17],0.03 µM
same,Ratio,Mus musculus [18],3.8
CCCCCCN1CCC(C(=O)CC)(c2cccc(O)c2)CC1,ED50,Mus musculus [6],7.5
same,ED50,Mus musculus [7],0.02 µM
same,ED50,Mus musculus [17],0.04 µM
same,Ratio,Mus musculus [18],2
CCC(=O)C1(c2cccc(O)c2)CCN(CC)CC1,ED50,Mus musculus [6],67.2
same,ED50,Mus musculus [7],0.4 µM
same,ED50,Mus musculus [19],1.5 µM
same,Ratio,[20],3.8
CN1CC[C@]23c4c5ccc(O)c4O[C@H]2[C@@H](O)C=C[C@H]3[C@H]1C5 [MORPHINE],Antagonist potency,Monkey [21],inactive
same,PDC,Monkey [22],Active
same,ED50,Monkey [2]; [31],1.2 mg/kg
CC1C2Cc3ccc(O)cc3[C@@H]1CCN2C (stereo in doubt; form 1),ED50,Monkey [2],1.1 mg/kg
CCCCCCCCCCN1CCC(C(=O)CC)(c2cccc(O)c2)CC1,ED50,Mus musculus [23],inactive
same,Ratio,Mus musculus [24],1.2
same,ED50,[25],0.5 µM
same,ED50,[26],0.6 µM
CCCCCCCCN1CCC(C(=O)CC)(c2cccc(O)c2)CC1,ED50,Mus musculus [10],26.5 µM
same,Ratio,Mus musculus [18],1
same,ED50,[25],0.2 µM
same,ED50,[27],0.2 µM
CN1CC[C@]2(C)CC1Cc1ccc(O)cc12 (stereo in doubt; form 1) [listing 1 of 2 here],ED50,Monkey [2],22.9 mg/kg
CC[C@H]1C2Cc3ccc(O)cc3[C@]1(CC)CCN2C,PDC,Monkey [5],intermed physical dependence capacity
same,Antagonist potency,Monkey [1],inactive
same,PDC,Monkey [3],intermed physical dependence capacity
CN1CC[C@]2(C)CC1Cc1ccc(O)cc12 (stereo in doubt; form 3) [listing 2 of 2 here],ED50,Monkey [2],1.8 mg/kg
CC1C2Cc3ccc(O)cc3[C@@H]1CCN2C (stereo in doubt; form 2),ED50,Monkey [2],4.3 mg/kg
CC1C2Cc3ccc(O)cc3[C@]1(C)CCN2C (stereo in doubt; form 2),ED50,Monkey [2],1.2 mg/kg
CCCN1CCC(C(=O)CC)(c2cccc(O)c2)CC1,ED50,Mus musculus [6],16
same,ED50,Mus musculus [7],0.2 µM
same,ED50,Mus musculus [28],0.8 µM
same,Ratio,Mus musculus [29],4
CN1CC[C@@H]2CC1Cc1ccc(O)cc12,ED50,Monkey [2]; [31],4.5 mg/kg
CCC[C@]12CCN(C)C(Cc3ccc(O)cc31)[C@@H]2C,PDC,Monkey [22],high physical dependence capacity
same,PDC,Monkey [5],high physical dependence capacity
same,Antagonist potency,Monkey [1],inactive
CN1CC[C@]2(C)CC1Cc1ccc(O)cc12 (stereo in doubt; form 1) [listing 2 of 2 here],Antagonist potency,Monkey [1],inactive
same,PDC,Monkey [30],no physical dependence capacity
CCCCCCCCCN1CCC(C(=O)CC)(c2cccc(O)c2)CC1,ED50,Mus musculus [23],inactive
same,Ratio,Mus musculus [18],1
same,ED50,[25],0.7 µM
same,ED50,[27],0.7 µM
